Literature values in patent US12194065B2, “Methods and compositions to enhance metabolic detoxification systems” (Nature's Sunshine Products, Inc., priority 2017, dated 2025).

Key:
eNOS = eNOS (Homo sapiens, UniProt P29474)
[1] = acute supplementation of 6 g, over 120 minutes, healthy individuals with normal plasma ADMA
[2] = once produced through NOS

eNOS, sequence (P29474 2-1203): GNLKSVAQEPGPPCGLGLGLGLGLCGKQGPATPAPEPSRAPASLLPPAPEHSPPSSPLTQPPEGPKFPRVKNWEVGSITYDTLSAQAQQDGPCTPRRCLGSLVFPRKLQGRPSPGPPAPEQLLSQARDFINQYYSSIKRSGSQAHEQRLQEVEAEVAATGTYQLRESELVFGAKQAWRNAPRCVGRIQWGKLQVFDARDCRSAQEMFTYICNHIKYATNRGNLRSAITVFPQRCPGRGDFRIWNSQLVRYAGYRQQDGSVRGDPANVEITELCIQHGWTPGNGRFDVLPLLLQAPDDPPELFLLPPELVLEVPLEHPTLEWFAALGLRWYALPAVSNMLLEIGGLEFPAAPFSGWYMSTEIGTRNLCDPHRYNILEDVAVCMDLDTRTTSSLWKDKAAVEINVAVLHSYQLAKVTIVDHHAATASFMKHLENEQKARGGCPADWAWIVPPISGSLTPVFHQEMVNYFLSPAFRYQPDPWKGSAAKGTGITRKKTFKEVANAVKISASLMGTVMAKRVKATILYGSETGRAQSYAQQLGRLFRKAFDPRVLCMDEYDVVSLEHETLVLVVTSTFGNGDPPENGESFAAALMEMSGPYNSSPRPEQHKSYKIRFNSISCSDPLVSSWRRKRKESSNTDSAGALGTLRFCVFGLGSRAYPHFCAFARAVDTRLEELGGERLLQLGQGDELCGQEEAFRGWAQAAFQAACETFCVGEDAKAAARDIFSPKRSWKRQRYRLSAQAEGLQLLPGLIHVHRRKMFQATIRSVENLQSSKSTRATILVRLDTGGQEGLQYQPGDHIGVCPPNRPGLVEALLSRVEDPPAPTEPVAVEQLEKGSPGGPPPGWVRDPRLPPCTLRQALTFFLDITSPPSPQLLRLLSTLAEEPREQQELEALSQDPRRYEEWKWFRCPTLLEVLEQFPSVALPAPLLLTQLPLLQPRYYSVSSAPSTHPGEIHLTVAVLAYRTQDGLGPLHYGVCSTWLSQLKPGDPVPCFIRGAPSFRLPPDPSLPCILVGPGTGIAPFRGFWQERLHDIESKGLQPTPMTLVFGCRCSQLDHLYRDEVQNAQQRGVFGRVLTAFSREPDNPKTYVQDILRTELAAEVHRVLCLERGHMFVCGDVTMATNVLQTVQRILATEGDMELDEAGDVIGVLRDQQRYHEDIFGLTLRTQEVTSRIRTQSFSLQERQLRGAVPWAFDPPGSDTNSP

| Compound | concentration saturating eNOS (eNOS) | plasma concentration of NOx [1] | half-life [2] |
| --- | --- | --- | --- |
| N=C(N)NCCC[C@H](N)C(=O)O [L-arginine] | approximately 3 μmol arginine/L | does not increase |  |
| [N]=O [NO, Nitric oxide] |  |  | approximately 1 second |
